From patent US6737383B1, “Herbicidal oxadiazolidines” (priority 1999, dated 2004)

How the values were obtained:
bedstraw = experiment: Test B pre/postemergence bedstraw; format: in vivo, Galium aparine
Outline: (§1)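 Herbicidal effect was estimated by eye on a ten-point control scale after plants spent twelve to sixteen days in a greenhouse following soil or foliar treatment. Foliar sprays targeted plants at one to four leaves; all doses were formulated in a non-phytotoxic solvent with surfactant.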

blackgrass = experiment: Test B pre/postemergence blackgrass; format: in vivo, Alopecurus myosuroides
Outline: as §1

surinam grass = experiment: Test B pre/postemergence surinam grass; format: in vivo, Brachiaria decumbens
Outline: as §1

cocklebur = experiment: Test B pre/postemergence cocklebur; format: in vivo, Xanthium strumarium
Outline: as §1

corn = experiment: Test B pre/postemergence corn; format: in vivo, Zea mays
Outline: as §1

crabgrass = experiment: Test B pre/postemergence crabgrass; format: in vivo, Digitaria sanguinalis
Outline: as §1

giant foxtail = experiment: Test B pre/postemergence giant foxtail; format: in vivo, Setaria faberii
Outline: as §1

morningglory = experiment: Test B pre/postemergence morningglory; format: in vivo, Ipomoea hederacea
Outline: as §1

pigweed = experiment: Test B pre/postemergence pigweed; format: in vivo, Amaranthus retroflexus
Outline: as §1

rape = experiment: Test B pre/postemergence rape; format: in vivo, Brassica napus
Outline: as §1

soybean = experiment: Test B pre/postemergence soybean; format: in vivo, Glycine max
Outline: as §1

sugar beet = experiment: Test B pre/postemergence sugar beet; format: in vivo, Beta vulgaris
Outline: as §1

velvetleaf = experiment: Test B pre/postemergence velvetleaf; format: in vivo, Abutilon theophrasti
Outline: as §1

wheat = experiment: Test B pre/postemergence wheat; format: in vivo, Triticum aestivum
Outline: as §1

wild oat = experiment: Test B pre/postemergence wild oat; format: in vivo, Avena fatua
Outline: as §1

purple nutsedge = experiment: Test B pre/postemergence purple nutsedge; format: in vivo, Cyperus rotundus
Outline: as §1

rice = experiment: Test B flood test rice; format: in vivo, Oryza sativa
Outline: (§2)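 Plants were grown to the 2-leaf stage before treatment with test chemical, then held in a greenhouse for twelve to sixteen days. Injury was visually rated against untreated controls on a 0–10 scale, where 0 is no effect and 10 is complete control.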

smallflower flatsedge = experiment: Test B flood test smallflower flatsedge; format: in vivo, Cyperus difformis
Outline: as §2

duck salad = experiment: Test B flood test duck salad; format: in vivo, Heteranthera limosa
Outline: as §2

bamyardgrass = experiment: Test B flood test barnyardgrass; format: in vivo, Echinochloa crus-galli
Outline: as §2

[1] = Preemergence, Rate 62 g/ha, scale of 0 to 10 where 0 is no effect and 10 is complete control
[2] = Preemergence, Rate 125 g/ha, scale 0 to 10, 0 is no effect, 10 is complete control
[3] = Preemergence, Rate 250 g/ha, scale 0 to 10, 0 is no effect, 10 is complete control
[4] = Preemergence, Rate 500 g/ha, scale 0 to 10, 0 is no effect, 10 is complete control
[5] = Rate 62 g/ha, Postemergence, scale 0 to 10 (0 no effect, 10 complete control)
[6] = Postemergence, Rate 125 g/ha, scale 0 to 10, 0 is no effect, 10 is complete control
[7] = Postemergence, Rate 250 g/ha, scale 0 to 10
[8] = Postemergence, Rate 500 g/ha, scale 0 to 10, 0 is no effect, 10 is complete control
[9] = Preemergence, Rate 500 g/ha, scale of 0 to 10 where 0 is no effect and 10 is complete control
[10] = Rate 62 g/ha, flood test species, Pre-emergence, visual evaluation after twelve to sixteen days
[11] = Rate 125 g/ha, under heading Pre-emergence, flood test species, visual evaluation after twelve to sixteen days
[12] = Rate 250 g/ha, Pre-emergence (flood test species), scale 0 to 10, 0 is no effect, 10 is complete control
[13] = Rate 500 g/ha, Pre-emergence section of Table B, 0 to 10 scale (0 no effect, 10 complete control)

CC(C)N(C(=O)n1oc(=O)n(CC2=NCCCO2)c1=O)c1ccccc1 [Compound 494]
Plant response rating, Bedstraw (bedstraw; [1]): 0 | Bedstraw plant response rating (bedstraw; [2]): 0 | Bedstraw plant response rating (bedstraw; [3]): 0 | Bedstraw plant response rating (bedstraw; [4]): 0 | Bedstraw plant response rating (bedstraw; [5]): 0 | Blackgrass plant response rating (blackgrass; [6]): 0 | Blackgrass plant response rating (blackgrass; [7]): 0 | Plant response rating, Blackgrass (blackgrass; [8]): 0 | Plant response rating, Blackgrass (blackgrass; [1]): 0 | Blackgrass plant response rating (blackgrass; [2]): 0 | Blackgrass plant response rating (blackgrass; [3]): 0 | Blackgrass plant response rating (blackgrass; [9]): 0 | Blackgrass plant response rating (blackgrass; [5]): 0 | B. signalgrass plant response rating (surinam grass; [6]): 0 | B. signalgrass plant response rating (surinam grass; Postemergence, Rate 250 g/ha, scale 0 to 10, 0 no effect, 10 complete control): 0 | Plant response rating, B. signalgrass (surinam grass; [8]): 0 | Plant response rating, B. signalgrass (surinam grass; [1]): 0 | B. signalgrass plant response rating (surinam grass; [2]): 0 | B. signalgrass plant response rating (surinam grass; [3]): 0 | B. signalgrass plant response rating (surinam grass; [4]): 0 | B. signalgrass plant response rating (surinam grass; [5]): 0 | Cocklebur plant response rating (cocklebur; [6]): 0 | Cocklebur plant response rating (cocklebur; [7]): 0 | Plant response rating, Cocklebur (cocklebur; [8]): 0 | Plant response rating, Cocklebur (cocklebur; [1]): 0 | Cocklebur plant response rating (cocklebur; [2]): 0 | Cocklebur plant response rating (cocklebur; [3]): 0 | Cocklebur plant response rating (cocklebur; [9]): 0 | Cocklebur plant response rating (cocklebur; [5]): 0 | Corn plant response rating (corn; [6]): 0 | Corn plant response rating (corn; [7]): 0 | Plant response rating, Corn (corn; [8]): 0 | Plant response rating, Corn (corn; [1]): 0 | Corn plant response rating (corn; [2]): 0 | Corn plant response rating (corn; [9]): 0 | Corn plant response rating (corn; [5]): 0 | Crabgrass plant response rating (crabgrass; [6]): 0 | Plant response rating, Crabgrass (crabgrass; [1]): 0 | Crabgrass plant response rating (crabgrass; [2]): 0 | Crabgrass plant response rating (crabgrass; [9]): 0 | Crabgrass plant response rating (crabgrass; [5]): 0 | Giant foxtail plant response rating (giant foxtail; [6]): 0 | Plant response rating, Giant foxtail (giant foxtail; [8]): 0 | Plant response rating, Giant foxtail (giant foxtail; [1]): 0 | Giant foxtail plant response rating (giant foxtail; [2]): 0 | Giant foxtail plant response rating (giant foxtail; [9]): 0 | Giant foxtail plant response rating (giant foxtail; [5]): 0 | Morningglory plant response rating (morningglory; [6]): 0 | Plant response rating, Morningglory (morningglory; [8]): 0 | Plant response rating, Morningglory (morningglory; [1]): 0 | Morningglory plant response rating (morningglory; [2]): 0 | Morningglory plant response rating (morningglory; [9]): 0 | Morningglory plant response rating (morningglory; [5]): 0 | Redroot pigweed plant response rating (pigweed; [6]): 0 | Plant response rating, Redroot pigweed (pigweed; [8]): 0 | Plant response rating, Redroot pigweed (pigweed; [1]): 0 | Redroot pigweed plant response rating (pigweed; [2]): 0 | Redroot pigweed plant response rating (pigweed; [9]): 0 | Redroot pigweed plant response rating (pigweed; [5]): 0 | Rape plant response rating (rape; [6]): 0 | Plant response rating, Rape (rape; [8]): 0 | Plant response rating, Rape (rape; [1]): 0 | Rape plant response rating (rape; [2]): 0 | Rape plant response rating (rape; [9]): 0 | Rape plant response rating (rape; [5]): 0 | Soybean plant response rating (soybean; [6]): 0 | Plant response rating, Soybean (soybean; [8]): 1 | Plant response rating, Soybean (soybean; [1]): 0 | Soybean plant response rating (soybean; [2]): 1 | Soybean plant response rating (soybean; [9]): 1 | Soybean plant response rating (soybean; [5]): 0 | Sugarbeets plant response rating (sugar beet; [6]): 0 | Plant response rating, Sugarbeets (sugar beet; [8]): 0 | Plant response rating, Sugarbeets (sugar beet; [1]): 0 | Sugarbeets plant response rating (sugar beet; [2]): 0 | Sugarbeets plant response rating (sugar beet; [9]): 0 | Sugarbeets plant response rating (sugar beet; [5]): 0 | Velvetleaf plant response rating (velvetleaf; [6]): 0 | Plant response rating, Velvetleaf (velvetleaf; [8]): 0 | Plant response rating, Velvetleaf (velvetleaf; [1]): 0 | Velvetleaf plant response rating (velvetleaf; [2]): 0 | Velvetleaf plant response rating (velvetleaf; [9]): 0 | Velvetleaf plant response rating (velvetleaf; [5]): 0 | Wheat plant response rating (wheat; [6]): 0 | Plant response rating, Wheat (wheat; [8]): 0 | Plant response rating, Wheat (wheat; [1]): 0 | Wheat plant response rating (wheat; [2]): 0 | Wheat plant response rating (wheat; [9]): 0 | Wheat plant response rating (wheat; [5]): 0 | Wild oats plant response rating (wild oat; [6]): 0 | Plant response rating, Wild oats (wild oat; [8]): 0 | Plant response rating, Wild oats (wild oat; [1]): 0 | Wild oats plant response rating (wild oat; [2]): 0 | Wild oats plant response rating (wild oat; [9]): 0 | Wild oats plant response rating (wild oat; [5]): 0 | Nutsedge plant response rating (purple nutsedge; [6]): 0 | Plant response rating, Nutsedge (purple nutsedge; [8]): 0 | Plant response rating, Nutsedge (purple nutsedge; [1]): 0 | Nutsedge plant response rating (purple nutsedge; [2]): 0 | Nutsedge plant response rating (purple nutsedge; [9]): 0 | Nutsedge plant response rating (purple nutsedge; [5]): 0 | Plant response rating, Rice (0 to 10 scale, 0 is no effect, 10 is complete control) (rice; [10]): 0 | Rice plant response rating (0 to 10 scale, 0 is no effect, 10 is complete control) (rice; [11]): 0 | Rice plant response rating (rice; [12]): 0 | Rice plant response rating (rice; [13]): 0 | Plant response rating, S. Flatsedge (0 to 10 scale, 0 is no effect, 10 is complete control) (smallflower flatsedge; [10]): 0 | S. Flatsedge plant response rating (0 to 10 scale, 0 is no effect, 10 is complete control) (smallflower flatsedge; [11]): 0 | S. Flatsedge plant response rating (smallflower flatsedge; [12]): 0 | S. Flatsedge plant response rating (smallflower flatsedge; [13]): 0 | Plant response rating, Ducksalad (0 to 10 scale, 0 is no effect, 10 is complete control) (duck salad; [10]): 0 | Ducksalad plant response rating (0 to 10 scale, 0 is no effect, 10 is complete control) (duck salad; [11]): 0 | Ducksalad plant response rating (duck salad; [12]): 0 | Ducksalad plant response rating (duck salad; [13]): 0 | Plant response rating, Barnyardgrass (0 to 10 scale, 0 is no effect, 10 is complete control) (bamyardgrass; [10]): 0 | Barnyardgrass plant response rating (0 to 10 scale, 0 is no effect, 10 is complete control) (bamyardgrass; [11]): 0 | Barnyardgrass plant response rating (bamyardgrass; [12]): 0 | Barnyardgrass plant response rating (bamyardgrass; [13]): 0
